From US20190292167A1, “HETEROAROMATIC COMPOUNDS USEFUL FOR THE TREATMENT OF PROLIFERATIVE DISEASES” (Syros Pharmaceuticals, Inc., priority 2013, published 2019)
Counter-ions that a name gives are not always drawn. Like-named read-outs stand apart in the source and are kept apart here.

Legend:
[1] = tested on: Jurkat; experiment: Inhibition of cell proliferation, CellTiter-Glo, 72 hour; assay type: cell-based; conditions: Homo sapiens, Jurkat, 72 h, read-out: Inhibition of Proliferation of Jurkat Cells
Protocol: The following cancer cell lines were tested with the media conditions indicated: […]

[2] = target: T1, CDK7 (Homo sapiens, UniProt P50613); experiment: Adapta kinase assay (Life Technologies) against CDK7, co-factors cyclin H and MNAT1; assay type: biochemical; conditions: read-out: CDK7 Inhibition
T1 construct: purchased Life Technologies (Adapta kinase assay service)
Protocol: Compounds of the invention were assayed for activity against CDK7 at Life Technologies™ (Grand Island, N.Y.) using their commercially available Adapta® kinase assay services. […] Details of the assay, including the substrate used for CDK7 kinase, are available on the Life Technologies web site (http://www.lifetechnologies.com/us/en/homellife-science/drug-discovery/target-and-lead-identification-and-validation/kinasebiology/kinase-activity-assays.html).
The co-factors used for the assay were cyclin H and MNAT1.

[3] = Blood cancer cell line, 72 hour

T1 sequence (P50613 whole entry): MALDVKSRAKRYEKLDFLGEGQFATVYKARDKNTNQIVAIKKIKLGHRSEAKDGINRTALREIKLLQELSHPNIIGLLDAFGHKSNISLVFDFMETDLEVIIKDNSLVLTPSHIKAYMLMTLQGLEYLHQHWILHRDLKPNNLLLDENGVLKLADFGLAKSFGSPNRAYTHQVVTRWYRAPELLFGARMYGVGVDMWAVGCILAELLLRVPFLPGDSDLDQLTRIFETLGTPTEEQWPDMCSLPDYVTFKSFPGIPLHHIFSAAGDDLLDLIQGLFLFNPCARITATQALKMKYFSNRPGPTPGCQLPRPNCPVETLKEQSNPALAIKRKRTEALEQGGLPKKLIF
T1 sequence (P51946 whole entry partner): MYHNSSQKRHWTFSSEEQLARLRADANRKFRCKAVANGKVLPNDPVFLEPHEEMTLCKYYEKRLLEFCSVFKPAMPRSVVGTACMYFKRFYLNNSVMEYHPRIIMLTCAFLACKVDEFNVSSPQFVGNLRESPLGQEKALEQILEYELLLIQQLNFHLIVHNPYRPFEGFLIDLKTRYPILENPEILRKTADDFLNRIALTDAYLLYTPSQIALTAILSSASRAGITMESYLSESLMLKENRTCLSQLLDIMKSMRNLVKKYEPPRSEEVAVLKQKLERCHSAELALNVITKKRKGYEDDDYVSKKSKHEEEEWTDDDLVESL
T1 sequence (P51948 whole entry partner): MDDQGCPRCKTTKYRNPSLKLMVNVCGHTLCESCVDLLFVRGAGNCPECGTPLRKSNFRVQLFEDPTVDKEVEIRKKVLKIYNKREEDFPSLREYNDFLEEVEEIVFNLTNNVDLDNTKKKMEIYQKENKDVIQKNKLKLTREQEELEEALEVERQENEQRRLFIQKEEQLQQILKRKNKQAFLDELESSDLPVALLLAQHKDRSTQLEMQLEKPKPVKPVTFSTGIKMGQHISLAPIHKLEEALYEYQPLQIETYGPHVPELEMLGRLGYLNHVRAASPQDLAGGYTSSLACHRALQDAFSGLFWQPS

Row | SMILES | IC50 [1, 3] [nM] | IC50 [2] [nM] | IC50 [1] [nM]
1 | C=CC(=O)Nc1ccc(NC(=O)C2CNCC(Nc3ncc(Cl)c(-c4c[nH]c5ccccc45)n3)C2)cc1 (racemic) [Compound 153, (+/−cis)-N-(4-acrylamidophenyl)-5-((5-chloro-4-(1H-indol-3-yl)pyrimidin-2-yl)amino)piperidine-3-carboxamide] | < 500 | < 100 | 
2 | CN(C)C/C=C/C(=O)Nc1ccc(CN2CCC(Nc3ncc(Cl)c(-c4c[nH]c5ccccc45)n3)CC2)cc1 [Compound 106, (E)-N-(4-((4-((5-chloro-4-(1H-indol-3-yl)pyrimidin-2-yl)amino)piperidin-1-yl)methyl)phenyl)-4-(dimethylamino)but-2-enamide] | < 500 | < 100 | 
3 | CN(C)C/C=C/C(=O)Nc1ccc(C(=O)N[C@@H]2CC[C@H](Nc3ncc(Cl)c(-c4c[nH]c5ccccc45)n3)C2)cc1 [Compound 129, N-((1R,3S)-3-((5-chloro-4-(1H-indol-3-yl)pyrimidin-2-yl)amino)cyclopentyl)-4-((E)-4-(dimethylamino)but-2-enamido)benzamide] | < 500 | < 100 | 
4 | C=CC(=O)Nc1ccc(NC(=O)[C@H]2CNCC(Nc3ncc(Cl)c(-c4c[nH]c5ccccc45)n3)C2)cc1 (mixture of isomers) [Compound 154, (+/−trans)-N-(4-acrylamidophenyl)-5-((5-chloro-4-(1H-indol-3-yl)pyrimidin-2-yl)amino)piperidine-3-carboxamide] | < 500 | < 100 | 
5 | N#Cc1cnc(N[C@@H]2CCN(C(=O)c3ccc(NC(=O)/C=C/Cn4ccnc4)cc3)C2)nc1-c1c[nH]c2ccccc12 [Compound 109, (E)-N-(4-((R)-3-(5-cyano-4-(1H-indol-3-yl)pyrimidin-2-ylamino)pyrrolidine-1-carbonyl)phenyl)-4-(1H-imidazol-1-yl)but-2-enamide] |  | < 100 | < 500
6 | CN(C)CC=CC(=O)Nc1ccc(C(=O)NC2CNCC(Nc3ncc(Cl)c(-c4c[nH]c5ccccc45)n3)C2)cc1 (racemic) [Compound 149, N-((+/−cis)-5-((5-chloro-4-(1H-indol-3-yl)pyrimidin-2-yl)amino)piperidin-3-yl)-4-((E)-4-(dimethylamino)but-2-enamido)benzamide] | 500 to 5000 | < 100 | 
7 | NCCC(=O)Nc1cccc(Nc2ncc(Cl)c(-c3c[nH]c4ccccc34)n2)c1 [Compound 306, 3-amino-N-(3-(5-chloro-4-(1H-indol-3-yl)pyrimidin-2-ylamino)phenyl) propanamide.TFA] | 500 to 5000 | < 100 | 
8 | CC(C)(CNC(=O)c1ccc(NC(=O)/C=C/CO)cc1)CNc1ncc(Cl)c(-c2c[nH]c3ccccc23)n1 [Compound 132, (E)-N-(3-(5-chloro-4-(1H-indol-3-yl)pyrimidin-2-ylamino)-2,2-dimethylpropyl)-4-(4-hydroxybut-2-enamido)benzamide] | > 5000 | > 1000 | 
9 | N#Cc1cnc(N[C@@H]2CCN(C(=O)c3ccc(NC(=O)/C=C/CN4CCOCC4)cc3)C2)nc1-c1c[nH]c2ccccc12 [Compound 107, (E)-N-(4-((R)-3-(5-cyano-4-(1H-indol-3-yl)pyrimidin-2-ylamino)pyrrolidine-1-carbonyl)phenyl)-4-morpholinobut-2-enamide] | < 500 | < 100 | 
10 | CN(C)C/C=C/C(=O)Nc1ccc(C(=O)N2CCC(Nc3ncc(Cl)c(-c4c[nH]c5ccccc45)n3)CC2)cc1F [Compound 112, (E)-N-(4-(4-(5-chloro-4-(1H-indol-3-yl)pyrimidin-2-ylamino)piperidine-1-carbonyl)-2-fluorophenyl)-4-(dimethylamino)but-2-enamide] | < 500 | < 100 | 
11 | Cc1nc(C)c(-c2nc(NC3CCN(C(=O)c4ccc(NC(=O)/C=C/CN(C)C)cc4)CC3)ncc2Cl)s1 [Compound 119, (E)-N-(4-(4-((5-chloro-4-(2,4-dimethylthiazol-5-yl)pyrimidin-2-yl)amino)piperidine-1-carbonyl)phenyl)-4-(dimethylamino)but-2-enamide] | 500 to 5000 | 100 to 1000 | 
